Key:
GLRA1 = molecular target: T1, GLRA1 (Homo sapiens, UniProt P23415); experiment: TEVC of glycine receptor GLRA1 expressed in oocytes; type: cell-based; settings: for activation of GLRA1 by compound alone: 1 mM
T1 sequence (P23415 29-457): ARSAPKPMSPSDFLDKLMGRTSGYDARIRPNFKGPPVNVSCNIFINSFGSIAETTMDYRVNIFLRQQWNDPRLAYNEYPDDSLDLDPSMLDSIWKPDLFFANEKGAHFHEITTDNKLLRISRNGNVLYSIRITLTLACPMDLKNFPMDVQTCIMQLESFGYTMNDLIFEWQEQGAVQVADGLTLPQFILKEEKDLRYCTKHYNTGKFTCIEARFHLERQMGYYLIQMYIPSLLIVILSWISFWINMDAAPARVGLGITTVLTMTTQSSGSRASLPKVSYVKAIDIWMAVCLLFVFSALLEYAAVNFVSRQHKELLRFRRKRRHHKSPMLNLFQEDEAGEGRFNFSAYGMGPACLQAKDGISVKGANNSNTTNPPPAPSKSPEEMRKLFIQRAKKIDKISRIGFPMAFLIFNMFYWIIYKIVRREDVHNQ
Excerpt: We generated cRNA transcripts encoding human KCNQ1, KCNQ2, KCNQ3, KCNQ4, KCNQ5 or GLRA1 (NM_001146040) (GenScript, Piscataway, N.J., USA) by in vitro transcription using the T7 polymerase mMessage mMachine kit (Thermo Fisher Scientific), after vector linearization, from cDNA sub-cloned into plasmids incorporating Xenopus laevis β-globin 5′ and 3′ UTRs flanking the coding region to enhance translation and cRNA stability. We quantified cRNA by spectrophotometry. We generated mutant KCNQ2 and KCNQ3 cDNAs by site-directed mutagenesis using a QuikChange kit (Stratagene, San Diego, Calif.) and prepared the corresponding cRNAs as above. We injected defolliculated stage V and VI Xenopus laevis oocytes (Ecocyte Bioscience, Austin, Tex. and Xenoocyte, Dexter, Mich.) with KCNQ channel a subunit (5-20 ng) or GLRA1 (20 ng) cRNAs. We incubated the oocytes at 16° C. in Barth's saline solution (Ecocyte) containing penicillin and streptomycin, with daily washing, for 2-5 days prior to two-electrode voltage-clamp (TEVC) recording.
We performed TEVC at room temperature using an OC-725C amplifier (Warner Instruments, Hamden, Conn.) and pClamp10 software (Molecular Devices, Sunnyvale, Calif.) 3-5 days after cRNA injection as described in the section above. For recording, oocytes were placed in a small-volume oocyte bath (Warner) and viewed them with a dissection microscope. Chemicals were sourced from Sigma, Matrix Scientific and Santa Cruz. […] All stock solutions were diluted in bath solution on the day of experiments. KCNQ2/3 channel activation was screened for using either 30 μM or 100 μM concentrations of each of the six compounds, then dose responses were conducted as appropriate. Bath solution was (in mM): 96 NaCl, 4 KCl, 1 MgCl2, 1 CaCl2, 10 HEPES (pH 7.6). Compounds were introduced into the oocyte recording bath by gravity perfusion at a constant flow of 1 ml per minute for 3 minutes prior to recording. Pipettes were of 1-2 MΩ resistance when filled with 3 M KCl. Currents were recorded in response to voltage pulses between −120 or −80 mV and +40 mV at 20 mV intervals from a holding potential of −80 mV, to yield current-voltage relationships, current magnitude, and for quantifying activation rate. We analyzed data using Clampfit (Molecular Devices) and Graphpad Prism software (GraphPad, San Diego, Calif., USA); values are stated as mean±SEM. We plotted raw or normalized tail currents versus prepulse voltage and fitted with a single Boltzmann function: […]

KCNQ2-W236L/KCNQ3 = KCNQ2-W236L/KCNQ3 (Homo sapiens, UniProt O43525+O43526, W236L); experiment: TEVC of KCNQ2-W236L/KCNQ3 channels; type: cell-based
Excerpt: As previously described (12), we generated cRNA transcripts encoding human KCNA1, KCNE1, KCNE2, KCNE3, KCNQ1, KCNQ2, KCNQ3, KCNQ4 or KCNQ5 by in vitro transcription using the T7 polymerase mMessage mMachine kit (Thermo Fisher Scientific), after vector linearization, from cDNA sub-cloned into plasmids incorporating Xenopus laevis β-globin 5′ and 3′ UTRs flanking the coding region to enhance translation and cRNA stability. We quantified cRNA by spectrophotometry. We generated mutant KCNQ2 and KCNQ3 cDNAs by site-directed mutagenesis with a QuikChange kit (Stratagene, San Diego, Calif.) and prepared the cRNAs as above. We injected defolliculated stage V and VI Xenopus laevis oocytes (Ecocyte Bioscience, Austin, Tex. and Xenoocyte, Dexter, Mich., US) with KCNE and/or KCNQ cRNAs (5-20 ng). We incubated the oocytes at 16° C. in Barth's saline solution (Ecocyte) containing penicillin and streptomycin, with daily washing, for 3-5 days prior to two-electrode voltage-clamp (TEVC) recording.
We performed TEVC at room temperature using an OC-725C amplifier (Warner Instruments, Hamden, Conn.) and pClamp10 software (Molecular Devices, Sunnyvale, Calif.) 2-5 days after cRNA injection as described in the section above. For recording, we placed the oocytes in a small-volume oocyte bath (Warner) and viewed them with a dissection microscope. We sourced chemicals from Sigma unless otherwise stated. We studied effects of 1% cilantro extract and of nine compounds previously identified in cilantro extract. Vanillic acid and 3,4-Dihydroxybenzoic acid were each solubilized in 100% ethanol at a stock concentration of 100 mM; the other compounds were solubilized directly in bath solution. We initially screened for KCNQ2/3 channel activity using 100 μM concentrations of each of the nine components, then conducted dose responses where appropriate. […] We recorded currents in response to voltage pulses between −120 or −80 mV and +40 mV at 20 mV intervals from a holding potential of −80 mV, to yield current-voltage relationships, current magnitude, and for quantifying activation rate. We analyzed data using Clampfit (Molecular Devices) and Graphpad Prism software (GraphPad, San Diego, Calif., USA); values are stated as mean±SEM. […]
We generated cRNA transcripts encoding human KCNQ1, KCNQ2, KCNQ3, KCNQ4, KCNQ5 or GLRA1 (NM_001146040) (GenScript, Piscataway, N.J., USA) by in vitro transcription using the T7 polymerase mMessage mMachine kit (Thermo Fisher Scientific), after vector linearization, from cDNA sub-cloned into plasmids incorporating Xenopus laevis β-globin 5′ and 3′ UTRs flanking the coding region to enhance translation and cRNA stability. We quantified cRNA by spectrophotometry. […]

Row | Structure (SMILES) | activation of GLRA1 by compound alone (GLRA1) | potency reduction by KCNQ2-W236L relative to KCNQ3-W265L mutation (KCNQ2-W236L/KCNQ3) | maximal shift in ΔV0.5activation (KCNQ2-W236L/KCNQ3; (E)-2-dodecenal) | EC50 (KCNQ2-W236L/KCNQ3; ΔV0.5activation, read-out: EC50 of (E)-2-dodecenal) | effect on KCNQ2-W236L/KCNQ3 (in words) (KCNQ2-W236L/KCNQ3) | inhibition of glycine-activated GLRA1 (GLRA1; 100 μM, 1 mM glycine) | inhibition of glycine-activated GLRA1 (in words) (GLRA1; 100 μM, 1 mM glycine)
1 | NCC(=O)O [glycine, reference compound] | robust activation |  |  |  |  |  | 
2 | CCCCCCCCC/C=C/C=O [(E)-2-dodecenal] |  | 20 fold | −9 mV | 5.07 ± 0.5 µM |  |  | 
3 | CS(=O)(=O)N(CC(=O)O)c1cccc(F)c1 [3FMSG] | lack of effects |  |  |  | independent of KCNQ2-W236 | ~40% | partially inhibited
